Measured values reported in patent publication US20240228446A1, “PREPARATION METHOD FOR BICYCLIC COMPOUND AND APPLICATION AS ANTIFUNGAL AGENT” (priority 2021, published 2024).
Values after ≈ are worked out from the molar mass of the structure shown.

tested on: Candida albicans ATCC MYA-2876; test: Minimal inhibitory concentration (MIC) test on fungal growth (CLSI M27, yeasts); assay type: cell-based; details: Candida albicans, 24 h, read-out: MIC Candida albicans ATCC MYA-2876
Experimental: • RPMI1640 medium: Brand: Gibco, article number: 31800-014 • Sabouraud dextrose agar (SDA): Brand: Hope Bio, article number: HB0253-81 • Voriconazole: Brand: Adamas, article number: 22105A • Amphotericin B: Brand: AbCam, article number: ab141199
MIC test was conducted in accordance with the guidelines and requirements of CLSI M27 (for yeasts) and M38 (for Aspergillus).
Strain preparation: The strains were inoculated 1 day in advance by streaking on SDA plates with glycerol strains stored at −80° C. The strains were cultured at 35° C. and 40 to 60% humidity for 18 to 24 hours. Streak inoculation of Aspergillus fumigatus and Cryptococcus neoformans was required to be done 3 days and 2 days in advance, respectively.
Preparation of culture medium and compounds: The liquid culture medium RPMI was prepared with pure water, and 0.165 mol/L MOPS was added to adjust the pH to 7.0. The mixture was filtered with a 0.22 μm-membrane filter, sterilized, and stored at 4° C. (no more than 3 months). 0.85% physiological saline was sterilized at 121° C. for 30 min and then stored at room temperature (no more than 1 week). The compounds were dissolved in DMSO to 12.8 mg/mL and stored at −20° C.
For yeast, 3 to 5 colonies were selected from the SDA plate on the day of testing and fully suspended in 5 mL of sterilized 0.85% physiological saline. The turbidity of the bacterial suspension was measured with a turbidimeter, and the turbidity was adjusted to approximately 0.2. The bacterial suspension was 50-fold and 20-fold (1000-fold in total) diluted in RPMI1640 medium, respectively, to serve as the inoculum. The final inoculum concentration was 500 to 2500 CFU/mL.
The compound was diluted to the highest 800 μg/mL (or 400 μg/mL) with DMSO, and a 10-step 2-fold gradient dilution was performed, resulting in 11 concentrations. 2 μL of the gradient-diluted compound was transferred to the corresponding wells of a 96-well plate, and then 198 μL of the inoculum was transferred to the test plate. The plate was incubated at 35° C. for 24 hours (Aspergillus fumigatus and Cryptococcus neoformans were incubated for 48 and 72 hours, respectively).
After the incubation, the growth of the fungi was visually observed. The lowest concentration of the compound that inhibited the growth of yeast by 50% (inhibited Aspergillus by 100%) was defined as the minimum inhibitory concentration (MIC, μg/mL). A magnifying glass or reading at OD530 nm could be used to assist in determining the MIC. Photos were taken of the test plates for record keeping.

SMILES	MIC [µg/mL]
CC(C)NC[C@@H](O)COc1ccc(C23CC(C(F)(F)C(O)(Cn4cnnn4)c4ccc(F)cc4F)(C2)C3)cc1 (stereo partly shown) [Compound 54]	0.5 (≈ 0.91 µM)
OC(Cn1cnnn1)(c1ccc(F)cc1F)C(F)(F)C12CC(c3ccc(OCC(F)(F)F)cn3)(C1)C2 (stereo not shown) [Compound 105]	0.016 (≈ 0.0309 µM)
OC(Cn1cnnn1)(c1ccc(F)cc1F)C(F)(F)C12CC(c3ccc(Oc4ccccn4)cc3)(C1)C2 (stereo not shown) [Compound 71]	0.03 (≈ 0.0587 µM)

same assay, conditions: Candida albicans; lowest concentration inhibiting growth of yeast by 50%; 35° C., 24 hours; RPMI1640; read-out: MIC Candida albicans ATCC MYA-2876

SMILES	MIC [µg/mL]
OC(Cn1cnnn1)(c1ccc(F)cc1F)C(F)(F)C12CC(c3ccc(OCC4(F)COC4)nc3)(C1)C2 (stereo not shown) [Compound 122]	0.016 (≈ 0.0306 µM)
OC(Cn1ccnc1)(c1ccc(F)cc1F)C(F)(F)C12CC(c3ccc(OCC(F)(F)F)cc3)(C1)C2 (stereo not shown) [Compound 124]	0.0078 (≈ 0.0152 µM)
OC(Cn1cnnn1)(c1ccc(F)cc1F)C(F)(F)C12CC(c3ccc(Cl)cc3)(C1)C2 (stereo not shown) [Compound 32]	0.016 (≈ 0.0353 µM)
OC(Cn1cnnn1)(CC12CC(c3ccc(OCC(F)(F)F)cc3)(C1)C2)c1ccc(F)cc1F (stereo not shown) [Compound 48]	0.06 (≈ 0.125 µM)
Oc1ccc(C23CC(C(F)(F)C(O)(Cn4cnnn4)c4ccc(F)cc4F)(C2)C3)cc1 (stereo not shown) [Compound 20]	0.13 (≈ 0.299 µM)
O=C1NC[C@@H](COc2ccc(C34CC(C(F)(F)C(O)(Cn5cnnn5)c5ccc(F)cc5F)(C3)C4)cc2)O1 (stereo partly shown) [Compound 60]	0.06 (≈ 0.112 µM)
OC(Cn1cnnn1)(c1ccc(F)cc1F)C(F)(F)C12CC(c3ccc(CNCC(F)(F)F)cc3)(C1)C2 (stereo not shown) [Compound 161]	0.016 (≈ 0.0302 µM)
O=S1(=O)CCC(c2ccc(C34CC(C(F)(F)C(O)(Cn5cnnn5)c5ccc(F)cc5F)(C3)C4)cc2)CC1 (stereo not shown) [Compound 163]	0.0078 (≈ 0.0142 µM)
O[C@](Cn1cnnn1)(c1ccc(F)cc1F)C(F)(F)C12CC(c3ccc(OCC(F)(F)F)cc3)(C1)C2 [Compound 3B]	1 (≈ 1.94 µM)
N#Cc1ccc(C23CC(C(F)(F)[C@@](Cn4cncn4)(OP(=O)(O)O)c4ccc(F)cc4F)(C2)C3)cc1 [Compound 27A-P1]	2 (≈ 3.83 µM)
COc1ccc(C23CC(C(C)(F)C(O)(Cn4cnnn4)c4ccc(F)cc4F)(C2)C3)cc1 (stereo not shown) [Compound 17]	0.125 (≈ 0.281 µM)
CN1CC(Oc2ccc(C34CC(C(F)(F)C(O)(Cn5cnnn5)c5ccc(F)cc5F)(C3)C4)cc2)C1 (stereo not shown) [Compound 45]	0.03 (≈ 0.0596 µM)
CNC(=O)c1ccc(C23CC(C(F)(F)C(O)(Cn4cnnn4)c4ccc(F)cc4F)(C2)C3)cc1 (stereo not shown) [Compound 79]	0.25 (≈ 0.526 µM)
OC(Cn1cnnn1)(c1ccc(F)cc1F)C(F)(F)C12CC(c3cnc(OCC(F)(F)F)nc3)(C1)C2 (stereo not shown) [Compound 110]	0.06 (≈ 0.116 µM)
OC(COc1ccc(C23CC(C(F)(F)C(O)(Cn4cnnn4)c4ccc(F)cc4F)(C2)C3)cc1)C1COC1 (stereo not shown) [Compound 152]	0.0078 (≈ 0.0146 µM)
OC(Cn1cnnn1)(c1ccc(F)cc1F)C(F)(F)C12CC(c3ccc(OC(F)(F)F)cc3)(C1)C2 (stereo not shown) [Compound 24]	0.03 (≈ 0.0597 µM)
C[C@@](F)(C12CC(c3ccc(OCC(F)(F)F)cc3)(C1)C2)[C@](O)(Cn1cnnn1)c1ccc(F)cc1F (single isomer, unassigned) [Compound 18A]	0.0078 (≈ 0.0152 µM)
OC(CNc1ccc(C23CC(C(F)(F)C(O)(Cn4cnnn4)c4ccc(F)cc4F)(C2)C3)cn1)C(F)(F)F (stereo not shown) [Compound 99]	0.016 (≈ 0.0293 µM)
OC(Cn1cnnn1)(c1ccc(Cl)cc1F)C(F)(F)C12CC(c3ccc(OCC(F)(F)F)cc3)(C1)C2 (stereo not shown) [Compound 7]	0.016 (≈ 0.03 µM)
CN1CCN(c2ccc(C34CC(C(F)(F)C(O)(Cn5cnnn5)c5ccc(F)cc5F)(C3)C4)cc2)CC1 (stereo not shown) [Compound 162]	0.03 (≈ 0.0581 µM)
OC(COc1cnc(C23CC(C(F)(F)C(O)(Cn4cnnn4)c4ccc(F)cc4F)(C2)C3)cn1)C(F)(F)F (stereo not shown) [Compound 108]	0.06 (≈ 0.109 µM)
O[C@H](COc1ccc(C23CC(C(F)(F)[C@](O)(Cn4cnnn4)c4cc(F)ccc4F)(C2)C3)cc1)C(F)(F)F (relative stereo) [Compound 165A]	0.016 (≈ 0.0293 µM)
OC(Cn1cnnn1)(c1ccc(F)cc1F)C(F)(F)C12CC(c3ccc(OCc4ccccn4)cc3)(C1)C2 (stereo not shown) [Compound 72]	0.03 (≈ 0.0571 µM)
N#Cc1ccc(C23CC(C(F)(F)[C@@](O)(Cn4cncn4)c4cc(F)ccc4F)(C2)C3)cc1 [Compound 29B]	0.125 (≈ 0.283 µM)

SMILES	MIC [µg/mL]
OC(Cn1cnnn1)(c1ccc(F)cc1F)C(F)(F)C12CC(c3cnc(OCC(F)(F)F)cn3)(C1)C2 (stereo not shown) [Compound 107]	0.06 (≈ 0.116 µM)
OC(Cn1cncn1)(c1ccc(F)cc1F)C(F)(F)C12CC(C1)C2 (stereo not shown) [Compound 10]	≤ 0.0039
O[C@@](Cn1cnnn1)(c1ccc(F)cc1F)C(F)(F)C12CC(c3cnc(OCC(F)(F)F)cn3)(C1)C2 (stereo in doubt) [Compound 107A]	0.016 (≈ 0.0309 µM)
OC1CC(Oc2ccc(C34CC(C(F)(F)C(O)(Cn5cnnn5)c5ccc(F)cc5F)(C3)C4)cc2)C1 (stereo not shown) [Compound 39]	0.0078 (≈ 0.0155 µM)
O=C(COc1ccc(C23CC(C(F)(F)C(O)(Cn4cnnn4)c4ccc(F)cc4F)(C2)C3)cc1)N1CCOCC1 (stereo not shown) [Compound 70]	0.13 (≈ 0.232 µM)
COCCOc1ccc(C23CC(C(F)(F)C(O)(Cn4cnnn4)c4ccc(F)cc4F)(C2)C3)cc1 (stereo not shown) [Compound 62]	0.016 (≈ 0.0325 µM)
N#Cc1ccc(C23CC(C[C@](O)(Cn4cncn4)c4ccc(F)cc4F)(C2)C3)cc1 (stereo in doubt) [Compound 91A]	≤ 0.0039
NS(=O)(=O)Oc1ccc(C23CC(C(F)(F)C(O)(Cn4cnnn4)c4ccc(F)cc4F)(C2)C3)cc1 (stereo not shown) [Compound 68]	0.13 (≈ 0.253 µM)
N[C@@](Cn1cnnn1)(c1ccc(F)cc1F)C(F)(F)C12CC(c3ccc(OCC(F)(F)F)cc3)(C1)C2 (stereo in doubt) [Compound 4A]	0.06 (≈ 0.116 µM)
CN1CCN(c2ccc(C34CC(C(F)(F)C(O)(Cn5cnnn5)c5ccc(F)cc5F)(C3)C4)cn2)CC1 (stereo not shown) [Compound 117]	0.06 (≈ 0.116 µM)
O[C@H](CNc1ccc(C23CC(C(F)(F)[C@](O)(Cn4cnnn4)c4ccc(F)cc4F)(C2)C3)cn1)C(F)(F)F (relative stereo) [Compound 99A]	0.016 (≈ 0.0293 µM)
CC(F)(C12CC(c3ccc(OCC(F)(F)F)cc3)(C1)C2)C(O)(Cn1cnnn1)c1ccc(F)cc1F (stereo not shown) [Compound 18]	0.016 (≈ 0.0312 µM)
OC(Cn1cnnn1)(c1ccc(F)cc1F)C(F)(F)C12CC(c3ccc(COCC(F)(F)F)cc3)(C1)C2 (stereo not shown) [Compound 160]	0.016 (≈ 0.0302 µM)
CS(=O)(=O)c1ccc(C23CC(C(F)(F)C(O)(Cn4cnnn4)c4ccc(F)cc4F)(C2)C3)cc1 (stereo not shown) [Compound 88]	0.25 (≈ 0.504 µM)
OC(Cn1cncn1)(c1ccc(F)cc1F)C(F)(F)C12CC(c3ccc(-n4cncn4)nc3)(C1)C2 (stereo not shown) [Compound 95]	≤ 0.0039
OC(CNc1ccc(C23CC(C(F)(F)C(O)(Cn4cncn4)c4ccc(F)cc4F)(C2)C3)cn1)C(F)(F)F (stereo not shown) [Compound 100]	0.0078 (≈ 0.0143 µM)
OC(Cn1cnnn1)(c1cc(F)ccc1F)C(F)(F)C12CC(c3ccc(OCC(F)(F)F)cc3)(C1)C2 (stereo not shown) [Compound 9]	0.03 (≈ 0.0581 µM)
CN1CC(COc2ccc(C34CC(C(F)(F)C(O)(Cn5cnnn5)c5ccc(F)cc5F)(C3)C4)cc2)C1 (stereo not shown) [Compound 75]	0.13 (≈ 0.251 µM)
O[C@](Cn1cnnn1)(c1ccc(F)cc1F)C(F)(F)C12CC(C1)C2 [Compound 6B]	2 (≈ 5.84 µM)
OC(Cn1cnnn1)(c1ccc(F)cc1F)C(F)(F)C12CC(I)(C1)C2 (stereo not shown) [Compound 11]	0.03 (≈ 0.0641 µM)
CC(C12CC(c3ccc(C#N)cc3)(C1)C2)C(O)(Cn1cncn1)c1ccc(F)cc1F (stereo not shown) [Compound 126]	0.016 (≈ 0.0381 µM)
OC(Cn1cnnn1)(c1ccc(F)cc1F)C(F)(F)C12CC(c3ccc4c(c3)OCO4)(C1)C2 (stereo not shown) [Compound 33]	0.06 (≈ 0.13 µM)
CNC(=O)COc1ccc(C23CC(C(F)(F)[C@@](O)(Cn4cncn4)c4ccc(F)cc4F)(C2)C3)cc1 (single isomer, unassigned) [Compound 35B]	0.125 (≈ 0.248 µM)
O[C@](Cn1cncn1)(c1ccc(F)cc1F)C(F)(F)C12CC(c3ccc(OCC(F)(F)F)cc3)(C1)C2 (stereo in doubt) [Compound 2B]	0.25 (≈ 0.485 µM)

same assay, conditions: lowest concentration inhibiting growth of yeast by 50%; 35° C., 24 hours; RPMI1640

SMILES	MIC Candida albicans ATCC MYA-2876 [µg/mL]
OC(Cn1cnnn1)(c1ccc(F)cc1F)C(F)(F)C12CC(c3cnn(CC(F)(F)F)c3)(C1)C2 (stereo not shown) [Compound 120]	0.125 (≈ 0.255 µM)
OC(Cn1cnnn1)(c1ccc(F)cc1F)C(F)(F)C12CC(C3=CCN(CC(F)(F)F)CC3)(C1)C2 (stereo not shown) [Compound 118]	0.0078 (≈ 0.0154 µM)
CC12CC(C(F)(F)[C@](O)(Cn3cnnn3)c3ccc(F)cc3F)(C1)C2 [Compound 14A]	0.016 (≈ 0.0449 µM)
N#Cc1ccc(C23CC(C(F)(F)[C@@](O)(Cn4cnnn4)c4ccc(F)cc4F)(C2)C3)cc1 [Compound 8A]	0.0078 (≈ 0.0176 µM)
